For orientation: pIC50 means the negative decadic logarithm of the IC50, by convention in mol/L.

This assay has as its target MAP kinase-activated protein kinase 2 (Homo sapiens, UniProt P49137). The assay is described as follows: Inhibition of human recombinant MK2 expressed in Escherichia coli BL21(DE3) after 60 mins.

pIC50: −log10 of the molar value.

Chain of MAP kinase-activated protein kinase 2 (P49137 whole entry): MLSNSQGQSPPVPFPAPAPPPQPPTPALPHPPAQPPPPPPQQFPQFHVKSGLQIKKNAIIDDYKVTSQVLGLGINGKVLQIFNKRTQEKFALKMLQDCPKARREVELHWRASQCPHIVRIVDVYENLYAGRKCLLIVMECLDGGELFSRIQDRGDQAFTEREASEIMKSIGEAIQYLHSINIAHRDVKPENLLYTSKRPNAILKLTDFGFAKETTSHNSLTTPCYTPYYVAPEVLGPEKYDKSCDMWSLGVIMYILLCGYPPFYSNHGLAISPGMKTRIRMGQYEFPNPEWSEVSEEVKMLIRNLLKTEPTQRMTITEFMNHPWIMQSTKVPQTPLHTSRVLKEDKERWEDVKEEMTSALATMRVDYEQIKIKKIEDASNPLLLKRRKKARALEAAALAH

For `Oc1cccc2cnccc12`, the pIC50 is 4.07.

With `Oc1cccc2ccccc12` [1-NAPHTHOL], the pIC50 is under 4.00.

Values taken from ChEMBL document CHEMBL1140089 (J Med Chem, 2008).
